# Data published in BindingDB's records for doi:10.1016/j.bioorg.2011.05.001 (Medical University of Lodz, 2011).
# Structures can show the parent of a compound that is named as a salt.
# How the values were obtained:
# Acetylcholinesterase = Acetylcholinesterase (Electrophorus electricus, UniProt O42275); assay: Enzyme Assay
# Text: (§1) Enzyme activity using acetylcholinesterase (AChE) and butyrylcholinesterase (BChE).
# [1] = molecular target: Carboxylic ester hydrolase (Equus caballus, UniProt Q9N1N9); assay: Enzyme Assay
# Sequence of Carboxylic ester hydrolase (Q9N1N9 whole entry): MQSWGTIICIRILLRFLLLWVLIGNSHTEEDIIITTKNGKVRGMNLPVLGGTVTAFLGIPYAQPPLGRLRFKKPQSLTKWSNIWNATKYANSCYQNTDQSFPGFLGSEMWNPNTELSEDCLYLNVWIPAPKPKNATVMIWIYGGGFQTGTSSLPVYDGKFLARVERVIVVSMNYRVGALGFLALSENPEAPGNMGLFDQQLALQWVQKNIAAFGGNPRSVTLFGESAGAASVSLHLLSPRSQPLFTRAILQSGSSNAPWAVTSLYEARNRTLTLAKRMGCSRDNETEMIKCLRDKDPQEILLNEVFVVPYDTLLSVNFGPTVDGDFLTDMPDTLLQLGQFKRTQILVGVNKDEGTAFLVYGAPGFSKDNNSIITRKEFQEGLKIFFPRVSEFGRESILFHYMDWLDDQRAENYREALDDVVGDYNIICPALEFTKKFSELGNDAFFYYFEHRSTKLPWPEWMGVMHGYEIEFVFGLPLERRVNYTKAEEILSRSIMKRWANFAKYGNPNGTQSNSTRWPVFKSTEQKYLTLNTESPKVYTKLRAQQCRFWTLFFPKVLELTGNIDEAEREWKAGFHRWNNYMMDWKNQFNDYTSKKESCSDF
# Text: as §1
# Sequence of Acetylcholinesterase (O42275 whole entry): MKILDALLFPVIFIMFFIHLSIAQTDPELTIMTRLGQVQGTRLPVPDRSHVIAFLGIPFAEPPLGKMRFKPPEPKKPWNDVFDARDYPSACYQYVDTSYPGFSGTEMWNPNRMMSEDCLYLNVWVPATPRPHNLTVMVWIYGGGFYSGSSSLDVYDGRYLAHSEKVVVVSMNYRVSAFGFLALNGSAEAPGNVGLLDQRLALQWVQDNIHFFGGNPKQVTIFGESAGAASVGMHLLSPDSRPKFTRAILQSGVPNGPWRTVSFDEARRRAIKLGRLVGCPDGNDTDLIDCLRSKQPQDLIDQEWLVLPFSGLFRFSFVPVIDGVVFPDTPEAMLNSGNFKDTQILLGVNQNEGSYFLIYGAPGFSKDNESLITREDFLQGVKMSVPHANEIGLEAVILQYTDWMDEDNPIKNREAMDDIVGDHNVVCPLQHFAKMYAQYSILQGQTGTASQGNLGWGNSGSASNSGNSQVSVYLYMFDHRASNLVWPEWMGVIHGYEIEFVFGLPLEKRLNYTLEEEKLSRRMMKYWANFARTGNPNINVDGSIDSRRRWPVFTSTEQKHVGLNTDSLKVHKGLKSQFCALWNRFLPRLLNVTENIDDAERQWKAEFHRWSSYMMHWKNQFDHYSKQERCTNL
Structure (SMILES),IC50 (Acetylcholinesterase) [nM],IC50 [1] [nM]
"NNc1ccc(C(=O)NCCCCNc2c3c(nc4ccccc24)CCCC3)cn1 [Nicotinamide hydrochloride analog, 6a]",440,1.45
"NNc1ccc(C(=O)NCCCCCNc2c3c(nc4ccccc24)CCCC3)cn1 [Nicotinamide hydrochloride analog, 6b]",308,–
"NNc1ccc(C(=O)NCCCCCCCNc2c3c(nc4ccccc24)CCCC3)cn1 [Nicotinamide hydrochloride analog, 6c]",721,1.13
